# Experimental data reported in ChEMBL document CHEMBL1127015, “Centrally acting serotonergic and dopaminergic agents. 1. Synthesis and structure-activity relationships of 2,3,3a,4,5,9b-hexahydro-1H-benz[e]indole derivatives” (J Med Chem, 1993).
# Tests used:
# D(2) dopamine receptor [1] = molecular target: T1, D(2) dopamine receptor (Rattus norvegicus, UniProt P61169); assay: Binding affinity against [3H]raclopride-labeled dopamine receptor D2 in rat striatum.; assay type: tissue-based
# Mus musculus [2] = assay: Antagonism of apomorphine for 0-10 minutes in reserpinized mice when a dose of 3.6 micro mol/kg is administered intraperitoneally; assay type: functional
# Mus musculus [3] = assay: Ability to stimulate dopaminergic systems by effect on locomotor activity in reserpinized mice when a dose of 3.6 micro mol/kg is administered intraperitoneally; assay type: functional
# Mus musculus [4] = assay: Antagonism of apomorphine for 10-20 minutes in reserpinized mice when a dose of 3.6 micro mol/kg is administered intraperitoneally; assay type: functional
# Rattus norvegicus [5] = assay: Inhibition of firing rates of dopaminergic neurons in the substantia nigra pars compacta by intravenous injection in rats; assay type: functional
# Mus musculus [6] = assay: Antagonism of apomorphine effects in reserpinized mice following 0.4 umol/kg i.p.; assay type: functional
# Mus musculus [7] = assay: Antagonism of apomorphine effects for 10-20 minutes in reserpinized mice following 0.4 umol/kg i.p.; assay type: functional
# Mus musculus [8] = assay: Antagonism of apomorphine effects for 0-10 minutes in reserpinized mice following 0.4 umol/kg i.p.; assay type: functional; set-up: unit not given beside the values
# Mus musculus [9] = assay: Antagonism of apomorphine in reserpinized mice when a dose of 36 micro mol/kg is administered intraperitoneally; assay type: functional
# Mus musculus [10] = assay: Increase in locomotor activity in reserpinized mice following 0.4 umol/kg i.p.; assay type: functional
# Mus musculus [11] = assay: Antagonism of apomorphine in reserpinized mice when a dose of 3.6 micro mol/kg is administered intraperitoneally; assay type: functional
# D(2) dopamine receptor [12] = molecular target: T2, D(2) dopamine receptor (Homo sapiens, UniProt P14416); assay: Intrinsic activity from GTP shift using membranes from CHO cells transfected with mammalian dopamine receptor D2.; assay type: cell membranes
# Rattus norvegicus [13] = assay: Inhibition of firing rates of serotonergic neurons in the substantia nigra pars compacta by intravenous injection in rats.; assay type: functional
# Mus musculus [14] = assay: Antagonism of apomorphine for 10-20 minutes in reserpinized mice when a dose of 36 micro mol/kg is administered intraperitoneally; assay type: functional
# Mus musculus [15] = assay: Ability to stimulate dopaminergic systems by effect on locomotor activity in reserpinized mice when a dose of 36 micro mol/kg is administered intraperitoneally; assay type: functional
# Mus musculus [16] = assay: Antagonism of apomorphine for 0-10 minutes in reserpinized mice when a dose of 36 micro mol/kg is administered intraperitoneally; assay type: functional
# Mus musculus [17] = assay: Antagonism of apomorphine for 10-20 minutes in reserpinized mice when a dose of 35 micro mol/kg is administered intraperitoneally; assay type: functional
# Mus musculus [18] = assay: Ability to stimulate dopaminergic systems by effect on locomotor activity in reserpinized mice when a dose of 3.5 micro mol/kg is administered intraperitoneally; assay type: functional
# D(2) dopamine receptor [19] = molecular target: T2, D(2) dopamine receptor; assay: Compound was evaluated for the intrinsic activity from GTP shift against dopamine receptor D2; assay type: functional
# Mus musculus [20] = assay: Antagonism of apomorphine in reserpinized mice when a dose of 3.5 micro mol/kg is administered intraperitoneally; assay type: functional
# Mus musculus [21] = assay: Antagonism of apomorphine for 0-10 minutes in reserpinized mice when a dose of 3.5 micro mol/kg is administered intraperitoneally; assay type: functional
# Mus musculus [22] = assay: Antagonism of apomorphine for 10-20 minutes in reserpinized mice when a dose of 3.5 micro mol/kg is administered intraperitoneally; assay type: functional
# Mus musculus [23] = assay: Antagonism of apomorphine in reserpinized mice when a dose of 35 micro mol/kg is administered intraperitoneally; assay type: functional
# Mus musculus [24] = assay: Antagonism of apomorphine for 0-10 minutes in reserpinized mice when a dose of 35 micro mol/kg is administered intraperitoneally; assay type: functional
# Mus musculus [25] = assay: Ability to stimulate dopaminergic systems by effect on locomotor activity in reserpinized mice when a dose of 35 micro mol/kg is administered intraperitoneally; assay type: functional
# D(2) dopamine receptor [26] = molecular target: T2, D(2) dopamine receptor; assay: Compound was evaluated for the binding affinity against [3H]U-86,170-labeled dopamine receptor D2 in cloned CHO cells; assay type: cell-based
# Mus musculus [27] = assay: Effective dose on hypothermia in mouse when administered subcutaneously; assay type: functional; details: sc
# Mus musculus [28] = assay: Effective dose on hypothermia in mouse when administered through peroral route; assay type: functional; details: po
# Mus musculus [29] = assay: Time of effect in the isolation-induced aggression behavioral assay in the mouse when a dose of 10 micro mol/kg is administered intraperitoneally; assay type: functional
# D(2) dopamine receptor [30] = molecular target: T1, D(2) dopamine receptor; assay: Inhibitory concentration against [3H]raclopride-labeled dopamine receptor D2 in rat striatum; assay type: tissue-based
# Rattus norvegicus [31] = assay: Inhibition of firing rates of serotonergic neurons in the dorsal raphe nucleus by intravenous injection in rats.; assay type: functional
# Mus musculus [32] = assay: Time of effect in the face-to-face behavioral assay in the mouse when a dose of 0.0 micro mol/kg is administered subcutaneously; assay type: functional
# Felis catus [33] = assay: Maximum decrease of arterial blood pressure at sympathetic nerve activity (SND) in anesthetized cat has been observed following 1 mg/kg dose; assay type: functional; set-up: scale not given: the % may be the effect or the level left
# Mus musculus [34] = assay: Time of effect in the face-to-face behavioral assay in the mouse when a dose of 34 micro mol/kg is administered subcutaneously; assay type: functional
# Rattus norvegicus [35] = assay: Inhibition of firing rates of dopaminergic neurons in the substantia nigra pars compacta by intravenous injection in rats.; assay type: functional; details: Rattus norvegicus, Substantia nigra pars compacta, iv; read-out: ED50
# Mus musculus [36] = assay: Maximum decrease in temperature when compound is administered through peroral route; assay type: functional
# Mus musculus [37] = assay: Time of effect in the isolation-induced aggression behavioral assay in the mouse when a dose of 3.4 micro mol/kg is administered intraperitoneally; assay type: functional
# Felis catus [38] = assay: Maximum decrease of sympathetic nerve activity (SND) in anesthetized cat has been expressed as percent control; assay type: functional; set-up: scale not given: the % may be the effect or the level left
# Mus musculus [39] = assay: Maximum decrease in temperature when compound is administered subcutaneously; assay type: functional
# Mus musculus [40] = assay: Ability to stimulate dopaminergic systems by effect on locomotor activity in reserpinized mice when a dose of 3.7 micro mol/kg is administered intraperitoneally; assay type: functional
# Mus musculus [41] = assay: Antagonism of apomorphine for 10-20 minutes in reserpinized mice when a dose of 37 micro mol/kg is administered intraperitoneally; assay type: functional
# D(2) dopamine receptor [42] = molecular target: T2, D(2) dopamine receptor; assay: Binding affinity against [3H]U-86,170-labeled dopamine receptor D2 in cloned CHO cells; assay type: cell-based
# Mus musculus [43] = assay: Antagonism of apomorphine in reserpinized mice when a dose of 3.7 micro mol/kg is administered intraperitoneally; assay type: functional
# Mus musculus [44] = assay: Antagonism of apomorphine for 10-20 minutes in reserpinized mice when a dose of 3.7 micro mol/kg is administered intraperitoneally; assay type: functional
# Mus musculus [45] = assay: Ability to stimulate dopaminergic systems by effect on locomotor activity in reserpinized mice when a dose of 37 micro mol/kg is administered intraperitoneally; assay type: functional
# Mus musculus [46] = assay: Antagonism of apomorphine in reserpinized mice when a dose of 37 micro mol/kg is administered intraperitoneally; assay type: functional
# Mus musculus [47] = assay: Antagonism of apomorphine for 0-10 minutes in reserpinized mice when a dose of 37 micro mol/kg is administered intraperitoneally; assay type: functional
# Mus musculus [48] = assay: Antagonism of apomorphine for 0-10 minutes in reserpinized mice when a dose of 3.7 micro mol/kg is administered intraperitoneally; assay type: functional
# Rattus norvegicus [49] = organism: Rattus norvegicus; assay: Effect on the synthesis rates of serotonin (5-HTP accumulation) in the rat ventral limbic brain region at 10.6uMkg; assay type: functional, Limbic system
# Rattus norvegicus [50] = organism: Rattus norvegicus; assay: Effect on the synthesis rates of serotonin (5-HTP accumulation) in the rat ventral limbic brain region at 10.6uMkg.; assay type: functional, Limbic system
# T1 sequence (P61169 whole entry): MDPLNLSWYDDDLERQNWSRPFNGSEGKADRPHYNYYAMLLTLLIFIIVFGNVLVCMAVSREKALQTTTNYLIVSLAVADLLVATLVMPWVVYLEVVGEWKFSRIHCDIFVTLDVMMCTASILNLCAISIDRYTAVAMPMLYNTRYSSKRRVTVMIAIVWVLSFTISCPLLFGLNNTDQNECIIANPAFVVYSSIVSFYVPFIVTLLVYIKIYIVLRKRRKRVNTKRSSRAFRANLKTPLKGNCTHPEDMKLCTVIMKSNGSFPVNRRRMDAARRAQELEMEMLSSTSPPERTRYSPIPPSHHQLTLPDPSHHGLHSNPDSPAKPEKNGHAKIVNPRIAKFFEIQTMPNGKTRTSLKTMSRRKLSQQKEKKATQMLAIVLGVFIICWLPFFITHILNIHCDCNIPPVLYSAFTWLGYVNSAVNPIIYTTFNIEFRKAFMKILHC
# T2 sequence (P14416 whole entry): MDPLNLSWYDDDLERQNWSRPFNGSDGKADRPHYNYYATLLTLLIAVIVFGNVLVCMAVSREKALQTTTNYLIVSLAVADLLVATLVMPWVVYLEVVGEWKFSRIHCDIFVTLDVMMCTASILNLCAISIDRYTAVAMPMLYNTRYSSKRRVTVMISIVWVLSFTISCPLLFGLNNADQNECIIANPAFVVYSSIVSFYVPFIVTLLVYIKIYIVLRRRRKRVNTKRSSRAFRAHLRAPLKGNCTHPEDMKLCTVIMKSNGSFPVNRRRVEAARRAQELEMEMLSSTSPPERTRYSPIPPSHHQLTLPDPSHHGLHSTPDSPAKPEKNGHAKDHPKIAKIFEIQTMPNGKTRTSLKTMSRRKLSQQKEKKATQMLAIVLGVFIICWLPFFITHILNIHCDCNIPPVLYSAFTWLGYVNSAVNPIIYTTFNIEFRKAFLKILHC
structure (smiles),measurement,setting,value
C=CCN1CC[C@H]2c3cccc(OC)c3CC[C@H]21,Ki,D(2) dopamine receptor [1],25 nM
same,Locomotor activity,Mus musculus [2],130
same,Locomotor activity,Mus musculus [3],5
same,Locomotor activity,Mus musculus [4],105
same,ED50,Rattus norvegicus [5],0.91 µmol/kg
same,Locomotor activity,Mus musculus [6],78
same,Locomotor activity,Mus musculus [7],120
same,Locomotor activity,Mus musculus [8],164
same,Locomotor activity,Mus musculus [9],21
same,Locomotor activity,Mus musculus [10],17
same,Locomotor activity,Mus musculus [11],62
same,Intrinsic activity,D(2) dopamine receptor [12],0%
same,ED50,Rattus norvegicus [13],0.24 µmol/kg
same,Locomotor activity,Mus musculus [14],38
same,Locomotor activity,Mus musculus [15],3
same,Locomotor activity,Mus musculus [16],52
CCCN1CC[C@H]2c3c(cccc3OC)CC[C@H]21,Ki,D(2) dopamine receptor [1],67 nM
same,Locomotor activity,Mus musculus [17],51
same,Locomotor activity,Mus musculus [18],36
same,Intinsic activity,D(2) dopamine receptor [19],37%
same,Locomotor activity,Mus musculus [20],6
same,Locomotor activity,Mus musculus [21],72
same,Locomotor activity,Mus musculus [6],41
same,Locomotor activity,Mus musculus [7],93
same,Locomotor activity,Mus musculus [22],67
same,Locomotor activity,Mus musculus [8],60
same,Locomotor activity,Mus musculus [23],9
same,Locomotor activity,Mus musculus [24],49
same,Locomotor activity,Mus musculus [10],19
same,Locomotor activity,Mus musculus [25],69
COc1cccc2c1C1CCN(CCc3ccccc3)[C@H]1CC2 (some centres not stated),Ki,D(2) dopamine receptor [26],392 nM
CCCN1[C@H](C)CC2c3c(cccc3OC)CC[C@H]21 (mixture of isomers),ED50,Mus musculus [27],19 µmol/kg
same,ED50,Mus musculus [28],104 µmol/kg
same,Time,Mus musculus [29],8 s
same,IC50,D(2) dopamine receptor [30],> 1000 nM
same,ED50,Rattus norvegicus [31],0.1 µmol/kg
same,Time,Mus musculus [32],0.6 s
same,Control,Felis catus [33],65%
same,Time,Mus musculus [34],1.5 s
same,ED50,Rattus norvegicus [35],1.7 µmol/kg
same,Max temperature decrease,Mus musculus [36],2.4
same,Time,Mus musculus [37],17 s
same,Control,Felis catus [38],250%
same,Max temperature decrease,Mus musculus [39],5.2
CCCN1CC[C@@H]2c3cccc(O)c3CC[C@H]21 (racemic),Ki,D(2) dopamine receptor [1],33 nM
same,Locomotor activity,Mus musculus [40],2
same,Locomotor activity,Mus musculus [6],72
same,Locomotor activity,Mus musculus [7],86
same,Locomotor activity,Mus musculus [41],5
same,Locomotor activity,Mus musculus [8],54
same,Ki,D(2) dopamine receptor [42],93 nM
same,Locomotor activity,Mus musculus [10],63
same,Intrinsic activity,D(2) dopamine receptor [12],28%
same,Locomotor activity,Mus musculus [43],46
same,Locomotor activity,Mus musculus [44],47
same,Locomotor activity,Mus musculus [45],162
same,ED50,Rattus norvegicus [35],0.43 µmol/kg
same,Locomotor activity,Mus musculus [46],4
same,Locomotor activity,Mus musculus [47],6
same,Locomotor activity,Mus musculus [48],34
CCCN1CC[C@H]2c3cccc(OC)c3CC[C@H]21 (racemic),Control,Rattus norvegicus [49],7%
same,Control,Rattus norvegicus [50],34%
